# Data reported in patent US8304447B2, “2-acylaminopropoanol-type glucosylceramide synthase inhibitors” (Genzyme Corporation, priority 2007, dated 2012).
# Tested on: GM3
# Experiment: GM3 Elisa assay
# Assay type: cell-based
# Details: Table 3 (IC 50 Values); B16-FO cells; read-out: IC50_uM_Mean
# Outline: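 Murine B16-FO melanoma cells attached 6 h on collagen, then exposed to compounds for 2 days at 37 °C. After formaldehyde fixation, cell-surface GM3 (NeuAc) was detected by anti-GM3 IgM and peroxidase anti-mouse IgM with Quantablu fluorescence (Ex 325/Em 420).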
row,SMILES,IC50 [nM]
1,O=C(CCCC(=O)c1ccc(F)cc1)N[C@H](CN1C2CCC1CC2)[C@H](O)c1ccc2c(c1)OCCO2 [Compound 474],100 to 1000
2,O=C(CCCCCC(=O)c1ccc(F)cc1)N[C@H](CN1C2CCC1CC2)[C@H](O)c1ccc2c(c1)OCCO2 [Compound 475],≤ 100
3,O=C(CCCCC(=O)c1ccc(F)cc1)N[C@H](CN1C2CCC1CC2)[C@H](O)c1ccc2c(c1)OCCO2 [Compound 476],100 to 1000
4,COc1ccc(C(=O)CCCCCC(=O)N[C@@H](CO)C(O)c2ccc3c(c2)OCCO3)cc1 (stereo partly shown) [Compound 477],3000 to 10000
5,CCCCCCCC(=O)N[C@H](CN1CCCC1)[C@H](O)c1ccc(CCOC)cc1 [Compound 478],100 to 1000
6,COCCc1ccc([C@@H](O)[C@@H](CN2CCCC2)NC(=O)CCCCCC(=O)c2ccc(OC)cc2)cc1 [Compound 479],≤ 100
7,COc1ccc(CCNC(=O)N[C@H](CN2CCCC2)[C@H](O)c2ccc3c(c2)OCCO3)cc1 [Compound 480],1000 to 3000
8,O=C(CCCCCNC(=O)C(F)(F)F)N[C@H](CN1CCCC1)[C@H](O)c1ccc2c(c1)OCCO2 [Compound 481],3000 to 10000
9,COc1ccc([C@@H](O)[C@@H](CO)NC(=O)OCc2ccccc2)cc1F [Compound 482],3000 to 10000
10,O=C(N[C@H](CO)[C@H](O)c1ccc(C(F)(F)F)cc1)OCc1ccccc1 [Compound 483],3000 to 10000
11,COc1ccc(C(=O)CCCCCC(=O)N[C@H](CN2CCCC2)[C@H](O)c2ccc(C(F)(F)F)cc2)cc1 [Compound 484],1000 to 3000
12,O=C(CCCN1Cc2ccccc2C1=O)N[C@H](CN1CCCC1)[C@H](O)c1ccc2c(c1)OCCO2 [Compound 485],3000 to 10000
13,O=C(CCCCCN1Cc2ccccc2C1=O)N[C@H](CN1CCCC1)[C@H](O)c1ccc2c(c1)OCCO2 [Compound 486],1000 to 3000
14,O=C(Cc1ccc(OC(F)(F)F)cc1)N[C@H](CN1CCCC1)[C@H](O)c1ccc(C(F)(F)F)cc1 [Compound 487],3000 to 10000
15,CCCCCCCC(=O)N[C@H](CN1CCCC1)[C@H](O)c1ccc(C(F)(F)F)cc1 [Compound 488],1000 to 3000
16,COc1ccc(OCCC(=O)N[C@H](CN2CCCC2)[C@H](O)c2ccc(C(F)(F)F)cc2)cc1 [Compound 489],3000 to 10000
17,COc1ccc(C(=O)CCCC(=O)N[C@H](CN2CCCC2)[C@H](O)c2ccc(C(F)(F)F)cc2)cc1 [Compound 490],3000 to 10000
18,COc1ccc(C(=O)CCCCC(=O)N[C@H](CN2CCCC2)[C@H](O)c2ccc(C(F)(F)F)cc2)cc1 [Compound 491],1000 to 3000
19,O=C(Cc1ccc(OC(F)(F)F)cc1)NC(CN1CCCC1)[C@H](O)c1ccc(Cl)s1 (stereo partly shown) [Compound 492],3000 to 10000
20,COc1ccc(OCCC(=O)N[C@H](CN2CCCC2)[C@H](O)c2ccc(Cl)s2)cc1 [Compound 493],1000 to 3000
21,COc1ccc(C(=O)CCCCC(=O)N[C@H](CN2CCCC2)[C@H](O)c2ccc(Cl)s2)cc1 [Compound 494],100 to 1000
22,COc1ccc(C(=O)CCCCC(=O)N[C@H](CN2CC[C@H](O)C2)[C@H](O)c2ccc(OCCCCF)cc2)cc1 [Compound 495],≤ 100
23,Cc1ccc(OCCC(=O)N[C@H](CN2CC[C@H](O)C2)[C@H](O)c2ccc(OCCCCF)cc2)cc1 [Compound 496],≤ 100
24,COc1ccc(C(=O)CCCCCC(=O)N[C@H](CN2CC[C@H](O)C2)[C@H](O)c2ccc(OCCCCF)cc2)cc1 [Compound 497],≤ 100
25,COc1ccc(CNC(=O)N[C@H](CN2CC[C@H](O)C2)[C@H](O)c2ccc(OCCCCF)cc2)cc1 [Compound 498],≤ 100
26,COCCCCCCCC(=O)N[C@H](CN1CC[C@H](O)C1)[C@H](O)c1ccc(OCCCCF)cc1 [Compound 499],≤ 100
27,COc1ccc(C(=O)CCCC(=O)N[C@H](CN2CC[C@H](O)C2)[C@H](O)c2ccc(OCCCCF)cc2)cc1 [Compound 500],≤ 100
28,COc1ccc(C(=O)CCCCCC(=O)N[C@H](CN2C3CCC2CC3)[C@H](O)c2ccc3c(c2)OCCO3)cc1 [Compound 522],≤ 100
29,COc1ccc(OCCC(=O)N[C@H](CN2C3CCC2CC3)[C@H](O)c2ccc3c(c2)OCCO3)cc1 [Compound 523],100 to 1000
30,CCCCCCCC(=O)N[C@H](CN1C2CCC1CC2)[C@H](O)c1ccc2c(c1)OCCO2 [Compound 524],100 to 1000

# The remaining lines, values ahead:
row,IC50 [nM],SMILES
1,≤ 100,COc1ccc(OCCCC(=O)N[C@H](CN2CC[C@H](O)C2)[C@H](O)c2ccc(OCCCCF)cc2)cc1 [Compound 501]
2,≤ 100,COc1ccc(OCCC(=O)N[C@H](CN2CC[C@H](O)C2)[C@H](O)c2ccc(OCCCCF)cc2)cc1 [Compound 502]
3,≤ 100,O=C(NCc1ccc(Cl)cc1)N[C@H](CN1CC[C@H](O)C1)[C@H](O)c1ccc(OCCCCF)cc1 [Compound 503]
4,100 to 1000,CCCCCCCC(=O)N[C@H](CN1CC[C@@H](F)C1)[C@H](O)c1ccc2c(c1)OCCO2 [Compound 504]
5,3000 to 10000,COc1ccc(OCCC(=O)N[C@H](CN2CC[C@H](c3ccccc3)C2)[C@H](O)c2ccc3c(c2)OCCO3)cc1 [Compound 505]
6,3000 to 10000,CCCCCCCC(=O)N[C@H](CN1CC[C@H](c2ccccc2)C1)[C@H](O)c1ccc2c(c1)OCCO2 [Compound 506]
7,100 to 1000,CCCCCCCC(=O)N[C@H](Cn1ccnc1)[C@H](O)c1ccc2c(c1)OCCO2 [Compound 507]
8,3000 to 10000,COc1ccc(OCCC(=O)N[C@H](Cn2ccnc2)[C@H](O)c2ccc3c(c2)OCCO3)cc1 [Compound 508]
9,100 to 1000,COc1ccc(OCCC(=O)N[C@H](CN2CC[C@@H](F)C2)[C@H](O)c2ccc3c(c2)OCCO3)cc1 [Compound 509]
10,3000 to 10000,CCCCCCCC(=O)N[C@H](CN1CC[C@H](F)C1)[C@H](O)c1ccc2c(c1)OCCO2 [Compound 510]
11,3000 to 10000,COc1ccc(OCCC(=O)N[C@H](CN2CC[C@H](F)C2)[C@H](O)c2ccc3c(c2)OCCO3)cc1 [Compound 511]
12,1000 to 3000,CCCCCCCC(=O)N[C@H](CN1CC[C@@H](O)C1)[C@H](O)c1ccc2c(c1)OCCO2 [Compound 512]
13,3000 to 10000,COc1ccc(OCCC(=O)N[C@H](CN2CC[C@@H](O)C2)[C@H](O)c2ccc3c(c2)OCCO3)cc1 [Compound 513]
14,100 to 1000,COc1ccc(OCCC(=O)N[C@H](CN2CC[C@H](O)C2)[C@H](O)c2ccc3c(c2)OCCO3)cc1 [Compound 514]
15,≤ 100,CCCCCCCC(=O)N[C@H](CN1CC[C@H](O)C1)[C@H](O)c1ccc2c(c1)OCCO2 [Compound 515]
16,100 to 1000,COc1ccc(OCCC(=O)N[C@H](CN2CC3CC3C2)[C@H](O)c2ccc3c(c2)OCCO3)cc1 (stereo partly shown) [Compound 516]
17,100 to 1000,CCCCCCCC(=O)N[C@H](CN1CC2CC2C1)[C@H](O)c1ccc2c(c1)OCCO2 (stereo partly shown) [Compound 517]
18,100 to 1000,COc1ccc(C(=O)CCCCCC(=O)N[C@H](CN2CC[C@@H](O)C2)[C@H](O)c2ccc3c(c2)OCCO3)cc1 [Compound 518]
19,3000 to 10000,COc1ccc(OCCC(=O)N[C@H](CN2CCC(C)(C)C2)[C@H](O)c2ccc3c(c2)OCCO3)cc1 [Compound 519]

row,IC50 [nM],SMILES
1,1000 to 3000,COc1ccc(C(=O)CCCCCC(=O)N[C@H](CN2CCC(C)(C)C2)[C@H](O)c2ccc3c(c2)OCCO3)cc1 [Compound 520]
2,3000 to 10000,CCCCCCCC(=O)N[C@H](CN1CCC(C)(C)C1)[C@H](O)c1ccc2c(c1)OCCO2 [Compound 521]
3,≤ 100,COc1ccc(C(=O)CCCCCC(=O)N[C@H](CN2CCC[C@@H]2C)[C@@H](O)c2ccc3c(c2)OCCO3)cc1 [Compound 525]
4,100 to 1000,COc1ccc(OCCC(=O)N[C@H](CN2CCC[C@@H]2C)[C@@H](O)c2ccc3c(c2)OCCO3)cc1 [Compound 526]
5,1000 to 3000,CCCCCCCC(=O)N[C@H](CN1CCC[C@@H]1C)[C@@H](O)c1ccc2c(c1)OCCO2 [Compound 527]
6,1000 to 3000,COc1ccc(OCCC(=O)N[C@H](CN2CCC[C@H]2C)[C@@H](O)c2ccc3c(c2)OCCO3)cc1 [Compound 528]
7,≤ 100,COc1ccc(C(=O)CCCCCC(=O)N[C@H](CN2CCC[C@H]2C)[C@@H](O)c2ccc3c(c2)OCCO3)cc1 [Compound 529]
8,3000 to 10000,CCCCCCCC(=O)N[C@H](CN1CCC[C@H]1C)[C@@H](O)c1ccc2c(c1)OCCO2 [Compound 530]
9,≤ 100,COc1ccc(C(=O)CCCCCC(=O)N[C@H](CN2CC[C@@H](F)C2)[C@H](O)c2ccc3c(c2)OCCO3)cc1 [Compound 531]
10,≤ 100,COc1ccc(C(=O)CCCCCC(=O)N[C@H](CN2CC[C@H](O)C2)[C@H](O)c2ccc3c(c2)OCCO3)cc1 [Compound 532]
11,100 to 1000,COC[C@@H]1CCCN1C[C@@H](NC(=O)CCCCCC(=O)c1ccc(OC)cc1)[C@@H](O)c1ccc2c(c1)OCCO2 [Compound 533]
12,3000 to 10000,CCCCCCCC(=O)N[C@H](CN1CCC[C@H]1COC)[C@@H](O)c1ccc2c(c1)OCCO2 [Compound 534]
13,3000 to 10000,COC[C@@H]1CCCN1C[C@@H](NC(=O)CCOc1ccc(OC)cc1)[C@@H](O)c1ccc2c(c1)OCCO2 [Compound 535]
14,3000 to 10000,COc1ccc(C(=O)CCCCCC(=O)NCCN2CCCC2)cc1 [Compound 536]
15,≤ 100,COc1ccc(C(=O)CCCCCC(=O)N[C@H](CN2CC3CC3C2)[C@H](O)c2ccc3c(c2)OCCO3)cc1 (stereo partly shown) [Compound 537]
16,3000 to 10000,COCC1CCCN1C[C@@H](NC(=O)CCOc1ccc(OC)cc1)[C@H](O)c1ccc2c(c1)OCCO2 (stereo partly shown) [Compound 538]
17,3000 to 10000,COC[C@H]1CCCN1C[C@@H](NC(=O)CCCCCC(=O)c1ccc(OC)cc1)[C@H](O)c1ccc2c(c1)OCCO2 [Compound 539]
18,3000 to 10000,CCCCCCCC(=O)N[C@H](CN1CCC[C@@H]1COC)[C@H](O)c1ccc2c(c1)OCCO2 [Compound 540]
